Results from US6418341B1, “Needle electrode assembly for electroporation mediated delivery of genes and drugs” (Genetronics, Inc., priority 1993, dated 2002).
“Also recorded” adds a separate entry of the source. Marks after values point to notes of the source that are not given here.

What was measured:
[1] = tested on: non-small cell lung cancer cell line (NSCLC), 177; test: Electrochemotherapy (ECT) of non-small cell lung cancer xenografts in nude mice; assay type: in vivo; details: for Overall outcome of the electrochemotherapy protocol: needle array electrodes
Protocol: (§1) The mice were monitored every day for mortality and any signs of a diseased state were noted. The tumor dimensions were measured at regular intervals and tumor growth regression/progression monitored. Another set of nude mice with xenografts of non-small cell lung cancer line was also treated by the same procedure as for the Panc-3 tumors.
(§2) The Panc-3 and NSCLC models were utilized with the drug neocarcinostatin (NCS) following the same procedures as outlined above. […] It was believed that due to the low isoelectric point of NCS, electrostatic interaction prevented the drug from entering the tumor cell. Therefore, the experiment was repeated by pulsing first and injecting NCS post-pulse.

[2] = tested on: poorly differentiated human pancreatic tumor (Panc-3); test: Electrochemotherapy (ECT) of Panc-3 tumors xenografted subcutaneously in nude mice; assay type: in vivo; details: for Overall outcome of the electrochemotherapy protocol: needle array electrodes
Protocol: The following examples illustrate the use of electrochemotherapy (ECT) of a poorly differentiated human pancreatic tumor (Panc-3) xenografted subcutaneously on the left flank of nude mice. The single treatment procedure involved injection of bleomycin (0.5 units in 0.15 ml saline) intratumorally, using fanning, as described herein followed by application of six square wave electrical pulses, ten minutes later, using proprietary needle array electrodes arranged along the circumference of a circle 1 cm in diameter. Needle array of variable diameters (e.g., 0.5 cm, 0.75 cm and 1.5 cm can also be used to accommodate tumors of various sizes. Stoppers of various heights can be inserted at the center of the array to make the penetration depth of the needles into the tumor variable. A built-in mechanism allowed switching of electrodes for maximum coverage of the tumor by the pulsed field. The electrical parameters were: 1300 V/cm and 6×99 μs pulses spaced at 1 sec interval.
The tumor cell line Panc-3, a poorly differentiated adenocarcinoma cell line of the pancreas, was supplied by AntiCancer, Inc., San Diego. For ECT experiments, tissue taken from the stock mice, where the tumor fine was maintained, was thawed and cut into very small pieces about 1 mm each, and 8-10 pieces were surgically xenografted in a subcutaneous sac made in left flank of nude mice, and then closed with 6.0 surgical suture. After the average tumor size reached about 5 mm, mice with palpable tumors were divided randomly, 10 mice for control group (D+E−; D=Drug, E=Electric field) and 10 mice for ECT treatment namely bleomycin injection followed by pulsing (D+E+) from a BTX Square Wave T820 Generator. The tumor dimensions were measured and the tumor volume calculated using the formula: […]
where a, b, and c are, respectively, the length, width and thickness of the tumor. 0.5 units Bleomycin (Sigma Chemicals) was dissolved in 0.15 ml of 0.9% NaCl and was injected in each mice intratumorally by fanning for both the control (D+E−) and the treated (D+E+) groups. Ten minutes after the injection, each mouse in the D+E+ group was pulsed from a BTX T820 square wave electroporator with a set of needle array electrodes as described in the present invention. Electrical parameters used were as follows: field strength 1300 V/cm, 6 pulses of 99 μs each, at 1 sec interval.
as §1, §2

cancerous tumors = details: low dose injected, tumors then electroporated with square wave pulses; cited from earlier work
[3] = P = partition coefficient between octanol and water; cited from earlier work
[4] = ECT, 10 mice treated, 28 days after treatment
[5] = ECT, 10 mice treated, 35 days after treatment
[6] = ECT, 10 mice treated, 57 days after treatment
[7] = ECT, 10 mice treated, 77 days after treatment

Substance: neocarcinostatin [NCS]
- Overall outcome of the electrochemotherapy protocol [1]: effectively treated
- Reduction of tumor size ([1]; pre-pulse dosing (FIG. 14b)): not effective in reducing tumor size at all
- Post-pulse compared with pre-pulse administration ([2]; FIGS. 14a and b versus 14c and d): more effective than pre-pulse administration
- Overall outcome of the electrochemotherapy protocol [2]: effectively treated
- Final versus initial tumor volume ([2]; post-pulse dosing, day 13, 7 mice, mouse ID 1, 2, 4 and 7, appeared to be due to edema (FIG. 14c)): an increase in tumor volume was observed
- Change of tumor volume ([2]; post-pulse dosing, day 23, separate group of 5 mice (FIG. 14d)): all mice showed a marked reduction in tumor volume
- Reduction of tumor size ([2]; pre-pulse dosing (FIG. 14a)): not effective in reducing tumor size at all

Substance: bleomycin
- Result of ECT treatment on tumor volume ([1]; ECT as for Panc-3, FIGS. 12a, 12b): very encouraging results
- Overall outcome of the electrochemotherapy protocol [1]: effectively treated
- Tumor after retreatment of a recurred tumor ([1]; one mouse retreated at day 27, 7 days after retreatment (FIG. 13)): no evidence of tumor
- Tumor response (cancerous tumors): reduction or complete remission of the tumors
- Histological analysis of tumor samples ([2]; D+E+ group (ECT)): severe necrosis of the tumor region; also recorded: necrotic tumor cell ghosts
- Cases with partial regression (80% reduction in tumor volume) ([2]; ECT (D+E+)): 30%
- Necrosis and edema at the treatment site ([2]; ECT (D+E+)): severe necrosis and edema in nearly all the mice
- Mice with tumor regrowth ([2]; ECT (D+E+), 35 days after treatment, much slower growth rate than control): 20%
- Cases with complete regression with no palpable tumor ([2]; ECT (D+E+), 77 days after the single treatment): 60%
- Time after which essentially no detectable tumor ([2]; ECT (D+E+), FIG. 10): approximately 24 days
- CR (100%), Complete Regression, number of mice [2, 4]: 6
- NR (%), No Response, number of mice [2, 4]: 1
- PR (80%), Partial Regression, number of mice [2, 4]: 3
- CR (100%), Complete Regression, number of mice [2, 5]: 6
- NR (%), No Response, number of mice [2, 5]: 1
- Tumor regrowth, number of mice [2, 5]: 2
- CR (100%), Complete Regression, number of mice [2, 6]: 6
- NR (%), No Response, number of mice [2, 6]: 1
- CR (100%), Complete Regression, number of mice [2, 7]: 6
- NR (%), No Response, number of mice [2, 7]: 1
- Death, number of mice ([2]; ECT, 10 mice treated, 77 days after treatment, 1 died after retreatment, 1 after 64 days survival): 2*
- Effect of intratumoral injection with larger volume combined with fanning ([2]; compared to the conventional mode of injecting the drug prior to pulsing): very effective
- Change of tumor volume ([2]; control group D+E- (drug, no electrical field)): increased dramatically
- Tumor volume (mm^3) C1 ([2]; control mouse C1 (D+E-), 1 day after treatment): 206.979 mm^3
- Tumor volume (mm^3) C1 ([2]; control mouse C1 (D+E-), 8 days after treatment): 394.786 mm^3
- Tumor volume (mm^3) C1 ([2]; control mouse C1 (D+E-), 15 days after treatment): 557.349 mm^3
- Tumor volume (mm^3) C1 ([2]; control mouse C1 (D+E-), 18 days after treatment): 939.582 mm^3
- Tumor volume (mm^3) C1 ([2]; control mouse C1 (D+E-), 24 days after treatment): 1391.057 mm^3
- Tumor volume (mm^3) C1 ([2]; control mouse C1 (D+E-), 28 days after treatment): 1628.631 mm^3
- Tumor volume (mm^3) C1 ([2]; control mouse C1 (D+E-), 35 days after treatment): 2619.765 mm^3
- Tumor volume (mm^3) C1 ([2]; control mouse C1 (D+E-), 38 days after treatment): 2908.912 mm^3
- Tumor volume (mm^3) C1 ([2]; control mouse C1 (D+E-), 43 days after treatment): 3708.571 mm^3
- Tumor volume (mm^3) C1 ([2]; control mouse C1 (D+E-, bleomycin 0.5 units intratumoral, no pulsing), 0 days after treatment): 138.746 mm^3
- Tumor volume (mm^3) C2 ([2]; control mouse C2 (D+E-), 1 day after treatment): 179.82 mm^3
- Tumor volume (mm^3) C2 ([2]; control mouse C2 (D+E-), 8 days after treatment): 451.787 mm^3
- Tumor volume (mm^3) C2 ([2]; control mouse C2 (D+E-), 15 days after treatment): 798.919 mm^3
- Tumor volume (mm^3) C2 ([2]; control mouse C2 (D+E-), 18 days after treatment): 881.752 mm^3
- Tumor volume (mm^3) C2 ([2]; control mouse C2 (D+E-), 24 days after treatment): 1406.98 mm^3
- Tumor volume (mm^3) C2 ([2]; control mouse C2 (D+E-), 28 days after treatment): 1474.21 mm^3
- Tumor volume (mm^3) C2 ([2]; control mouse C2 (D+E-), 35 days after treatment): 2330.31 mm^3
- Tumor volume (mm^3) C2 ([2]; control mouse C2 (D+E-), 38 days after treatment): 2333.967 mm^3
- Tumor volume (mm^3) C2 ([2]; control mouse C2 (D+E-), 43 days after treatment): 5381.759 mm^3
- Tumor volume (mm^3) C2 ([2]; control mouse C2 (D+E-, bleomycin 0.5 units intratumoral, no pulsing), 0 days after treatment): 148.94 mm^3
- Overall outcome of the electrochemotherapy protocol [2]: effectively treated
- Mice with no response ([2]; treated by ECT (D+E+)): 10%
- Mice with nearly complete tumor regression ([2]; treated by ECT (D+E+), after 28 days): 90%
- Change of tumor volume ([2]; treated group D+E+, after a slight initial increase due to edema): substantial reduction in the tumor volume
- Tumor volume (mm^3) T1 ([2]; treated mouse T1 (D+E+), 1 day after treatment): 210.95 mm^3
- Tumor volume (mm^3) T1 ([2]; treated mouse T1 (D+E+), 8 days after treatment): 104.55 mm^3
- Tumor volume (mm^3) T1 ([2]; treated mouse T1 (D+E+), 15 days after treatment): 113.21 mm^3
- Tumor volume (mm^3) T1 ([2]; treated mouse T1 (D+E+), 18 days after treatment): 161.73 mm^3
- Tumor volume (mm^3) T1 ([2]; treated mouse T1 (D+E+), 24 days after treatment): 41.56 mm^3
- Tumor volume (mm^3) T1 ([2]; treated mouse T1 (D+E+), 28 days after treatment): 0 mm^3
- Tumor volume (mm^3) T1 ([2]; treated mouse T1 (D+E+), 35 days after treatment): 0 mm^3
- Tumor volume (mm^3) T1 ([2]; treated mouse T1 (D+E+), 38 days after treatment): 0 mm^3
- Tumor volume (mm^3) T1 ([2]; treated mouse T1 (D+E+), 43 days after treatment): 0 mm^3
- Tumor volume (mm^3) T1 ([2]; treated mouse T1 (D+E+, bleomycin 0.5 units intratumoral + 1300 V/cm 6x99 μs pulses), 0 days after treatment): 123.11 mm^3
- Tumor volume (mm^3) T2 ([2]; treated mouse T2 (D+E+), 1 day after treatment): 252.72 mm^3
- Tumor volume (mm^3) T2 ([2]; treated mouse T2 (D+E+), 8 days after treatment): 211.11 mm^3
- Tumor volume (mm^3) T2 ([2]; treated mouse T2 (D+E+), 15 days after treatment): 226.966 mm^3
- Tumor volume (mm^3) T2 ([2]; treated mouse T2 (D+E+), 18 days after treatment): 246.91 mm^3
- Tumor volume (mm^3) T2 ([2]; treated mouse T2 (D+E+), 24 days after treatment): 47.2228 mm^3
- Tumor volume (mm^3) T2 ([2]; treated mouse T2 (D+E+), 28 days after treatment): 0 mm^3
- Tumor volume (mm^3) T2 ([2]; treated mouse T2 (D+E+), 35 days after treatment): 0 mm^3
- Tumor volume (mm^3) T2 ([2]; treated mouse T2 (D+E+), 38 days after treatment): 0 mm^3
- Tumor volume (mm^3) T2 ([2]; treated mouse T2 (D+E+), 43 days after treatment): 0 mm^3
- Tumor volume (mm^3) T2 ([2]; treated mouse T2 (D+E+, bleomycin 0.5 units intratumoral + 1300 V/cm 6x99 μs pulses), 0 days after treatment): 178.37 mm^3
- log P [3]: very negative
